One data set concerns the target BTK wild type (Homo sapiens (Human), UniProt Q06187). The data set can be described thus: Inhibition assay of BTK kinase activity (HTRF). Type of data set: biochemical. How it is done: Inhibition Assay of BTK Kinase Activity:
The enzyme reaction mixture of BTK wild type standard HTRF assay contained 1 nM BTK wild type, 1 μM biotin-TK1 peptide, and 30 μM ATP in a buffer. The enzyme reaction were carried out at room temperature for 60 minutes. […] The plates were incubated at room temperature for 60 minutes and then read in the Envision plate reader.

The next data set concerns TMD-8 lymphoma xenograft. The data set can be described thus: TMD-8 lymphoma xenograft SCID mouse model. Type of data set: in vivo. The following applies: BID, 14 days (FIG. 1); for Antitumor effect: Oral. How it is done:
Compounds (Compounds 45 and others) alone and its combinations were evaluated against tumor growth in xenograft models in female CB-17 SCID mice. The TMD-8, DoHH2, WSU-DLCL2 tumor cells were maintained in vitro as a suspension culture in RPMI-1640 medium supplemented with 10% heat inactivated fetal calf serum at 37° C. in an atmosphere of 5% CO2 in air. The tumor cells were routinely subcultured twice weekly. The cells growing in an exponential growth phase were harvested and counted for tumor inoculation. Each mouse was inoculated subcutaneously at the right flank with the tumor cells (10×10^6) in 0.2 ml of PBS with Matrigel (1:1) for tumor development. The treatments were started after the average tumor size reached approximately 100-200 mm^3. Each group consisted of 6-10 tumor-bearing mice. The testing article (vehicle, compound or combination) was orally administrated to the mice according to the predetermined doses for 14-days or 21-days. Animal body weight and tumor volume were measured every 2-or 3-days throughout the treatment.

The conditions of data set [1]: dogs, 24 mg/kg, U.S. FDA NDA 205552 pharmacological review, cited from earlier work.
For data set [2] the following is noted: rats, 40 mg/kg, U.S. FDA NDA 205552 pharmacological review, cited from earlier work.
Where [3] appears, read: all compounds with IC50 of less 10 nM, read-out: IC50 (BTK).

Read-outs that look alike come from different tables or passages of the source. A value given as a limit tells only on which side of the number the result lay.

BTK wild type, sequence (Q06187 whole entry): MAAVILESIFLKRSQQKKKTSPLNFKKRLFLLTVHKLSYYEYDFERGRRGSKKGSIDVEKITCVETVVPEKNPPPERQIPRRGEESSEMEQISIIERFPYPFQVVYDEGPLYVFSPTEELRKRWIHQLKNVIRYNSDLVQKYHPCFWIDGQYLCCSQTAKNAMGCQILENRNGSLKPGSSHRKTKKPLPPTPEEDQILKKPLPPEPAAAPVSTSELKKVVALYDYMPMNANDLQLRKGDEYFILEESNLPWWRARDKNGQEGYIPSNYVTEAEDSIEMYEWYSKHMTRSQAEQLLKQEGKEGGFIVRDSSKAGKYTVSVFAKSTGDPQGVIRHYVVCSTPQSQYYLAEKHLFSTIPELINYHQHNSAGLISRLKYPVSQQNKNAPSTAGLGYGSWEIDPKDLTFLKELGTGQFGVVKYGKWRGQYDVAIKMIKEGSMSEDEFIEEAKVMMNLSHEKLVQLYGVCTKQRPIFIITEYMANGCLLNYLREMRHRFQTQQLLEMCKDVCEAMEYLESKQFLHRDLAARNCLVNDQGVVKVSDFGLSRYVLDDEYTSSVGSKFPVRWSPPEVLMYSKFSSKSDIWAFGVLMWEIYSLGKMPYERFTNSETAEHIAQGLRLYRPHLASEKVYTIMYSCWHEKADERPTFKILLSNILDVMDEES

On to `C=CC(=O)N1CCC[C@@H](n2nc(-c3ccc(Oc4c(F)c(F)cc(F)c4F)cc3F)c3c(N)ncnc32)C1` [Compound 33, 1-((R)-3-(4-amino-3-(2-fluoro-4-(2,3,5,6-tetrafluorophenoxy)phenyl)-1H-pyrazolo[3,4-d]pyrimidin-1-yl)piperidin-1-yl)prop-2-en-1-one], for which the IC50 at BTK wild type (setting [3]) is less than 0.01 µM; on BTK wild type (read-out: BTK IC50), 0.002 µM. Besides, the Antitumor effect was 56% in the data set with TMD-8 lymphoma xenograft (10 mg/kg) and 77% in the data set on TMD-8 lymphoma xenograft (30 mg/kg). The “TMD-8 tumor growth suppression” value in the data set with TMD-8 lymphoma xenograft (multiple doses, p.o.) is listed as “significant TMD-8 tumor growth suppressions were dose-depended”.
As for `C=CC(=O)N1CCC[C@@H](n2nc(-c3ccc(Oc4ccccc4)cc3)c3c(N)ncnc32)C1` [ibrutinib], the figures for the AUC in data set [1] (female) and in data set [1] (male) were 1,850 h*ng/mL and 1,780 h*ng/mL, respectively. Further, the “AUC (area under the curve)” value in data set [2] (female) is 3300 ng·h/mL; in data set [2] (male), 1,000 h*ng/mL.
Regarding `Nc1ncnc2c1c(-c1ccc(Oc3c(F)c(F)cc(F)c3F)cc1F)nn2[C@H]1CC[C@H](N2C(=O)C=CC2=O)C1` [Compound 37, 1-((1 S,3S)-3-(4-amino-3-(2-fluoro-4-(2,3,5,6-tetrafluorophenoxy)phenyl)-1H-pyrazolo[3,4-d]pyrimidin-1-yl)cyclopentyl)-1H-pyrrole-2,5-dione], the IC50 at BTK wild type (read-out: BTK IC50) was determined as 0.099 µM.
As to `C=CC(=O)N[C@H]1CC[C@@H](n2nc(-c3ccc(Oc4cccc(F)c4)cc3F)c3c(N)ncnc32)CC1` [Compound 13, N-((1s,4s)-4-(4-amino-3-(2-fluoro-4-(3-fluorophenoxy)phenyl)-1H-pyrazolo[3,4-d]pyrimidin-1-yl)cyclohexyl)acrylamide], the IC50 on BTK wild type (setting [3]) is less than 0.01 µM; at BTK wild type (read-out: BTK IC50), 0.001 µM.
For `CCOC(=O)/C=C/CNC(=O)N1CCCC(n2nc(-c3ccc(Oc4c(F)c(F)cc(F)c4F)cc3F)c3c(N)ncnc32)C1` (stereo not shown) [Compound 74, (E)-ethyl 4-(3-(4-amino-3-(2-fluoro-4-(2,3,5,6-tetrafluorophenoxy)phenyl)-1H-pyrazolo[3,4-d]pyrimidin-1-yl)piperidine-1-carboxamido)but-2-enoate] the same measures were less than 0.01 µM and 0.003 µM.
With `C=CC(=O)N1CCCC(n2nc(-c3ccc(C(=O)c4ccccc4F)cc3F)c3c(N)ncnc32)C1` (stereo not shown) [Compound 4, 1-(3-(4-amino-3-(2-fluoro-4-(2-fluorobenzoyl)phenyl)-1H-pyrazolo[3,4-d]pyrimidin-1-yl)piperidin-1-yl)prop-2-en-1-one], the IC50 at BTK wild type (read-out: BTK IC50) is 0.002 µM.
On the same count and under the same terms, with `Nc1ncnc2c1c(-c1ccc(Oc3c(F)c(F)cc(F)c3F)cc1F)nn2[C@@H]1CCN(C(=O)c2ncco2)C1` [Compound 109, ((R)-3-(4-amino-3-(2-fluoro-4-(2,3,5,6-tetrafluorophenoxy)phenyl)-1H-pyrazolo[3,4-d]pyrimidin-1-yl)pyrrolidin-1-yl)(oxazol-2-yl)methanone] the figure was 1.28 µM.
As to `C=CC(=O)N1CCC(n2nc(-c3ccc(Oc4cccc(F)c4)cc3F)c3c(N)ncnc32)C1` (stereo not shown) [Compound 15, 1-(3-(4-amino-3-(2-fluoro-4-(3-fluorophenoxy)phenyl)-1H-pyrazolo[3,4-d]pyrimidin-1-yl)pyrrolidin-1-yl)prop-2-en-1-one], the figures for the IC50 at BTK wild type (setting [3]) and at BTK wild type (read-out: BTK IC50) were less than 0.01 µM and 0.003 µM, respectively.
Regarding `Nc1ncnc2c1c(-c1ccc(Oc3c(F)c(F)cc(F)c3F)cc1F)nn2[C@@H]1CCN(C(=O)NO)C1` [Compound 115, (3R)-3-(4-amino-3-(2-fluoro-4-(2,3,5,6-tetrafluorophenoxy)phenyl)-1H-pyrazolo[3,4-d]pyrimidin-1-yl)-N-hydroxypyrrolidine-1-carboxamide], at BTK wild type (read-out: BTK IC50), the IC50 came out at 0.013 µM.
Same read-out and setting: with `C=CC(=O)N1CCCC(n2nc(-c3ccc(C(=O)c4cccc(F)c4)c(F)c3)c3c(N)ncnc32)C1` (stereo not shown) [Compound 3, 1-(3-(4-amino-3-(3-fluoro-4-(3-fluorobenzoyl)phenyl)-1H-pyrazolo[3,4-d]pyrimidin-1-yl)piperidin-1-yl)prop-2-en-1-one] the figure was 0.01 µM.
Consider `CN/C(=C\[N+](=O)[O-])N1CCCC(n2nc(-c3ccc(Oc4c(F)c(F)cc(F)c4F)cc3F)c3c(N)ncnc32)C1` (stereo not shown) [Compound 55, 1-[3-[4-amino-3-[2-fluoro-4-(2,3,5,6-three-fluorophenoxy)phenyl]-1H-pyrazolo[3,4-d]pyrimidin-1-yl]-1-piperidinyl]-1-(methylamino)-2-nitro ethylene], for which the IC50 on BTK wild type (read-out: BTK IC50) was 1.74 µM.
The same measure, in the same setting: with `Nc1ncnc2c1c(-c1ccc(Oc3c(F)c(F)cc(F)c3F)cc1F)nn2[C@@H]1CCN(C(=O)C(=O)C2CC2)C1` [Compound 78, 1-((R)-3-(4-amino-3-(2-fluoro-4-(2,3,5,6-tetrafluorophenoxy)phenyl)-1H-pyrazolo[3,4-d]pyrimidin-1-yl)pyrrolidin-1-yl)-2-cyclopropylethane-1,2-dione] the figure was 1.9 µM.

Broadly, the IC50 is the concentration needed to halve the response being measured.

(Values after patent publication US9532990B2 (Zhejiang DTRM Biopharma Co. Ltd., priority 2014, dated 2017).)
